Values quoted from earlier work as cited in patent publication US20230000809A1, “TREATMENT OF DISORDERS ARISING FROM GENETIC MUTATION” (priority 2021, published 2023).
Structures can show the parent of a compound that is named as a salt.

Key:
[1] = test system: gadolinium enhancing lesions; conditions: RRMS patients; after 24 weeks of treatment as compared to placebo
[2] = test system: nuclear factor kappa B (NF-κB)-dependent transcription of TNF-α induced genes; conditions: human endothelial cells, in vitro

| Compound | number of gadolinium enhancing lesions [1] | effect on NF-κB-dependent transcription of TNF-α induced genes [2] |
| --- | --- | --- |
| COC(=O)/C=C/C(=O)OC [BG-12] | significant reduction | – |
| COC(=O)/C=C/C(=O)OC [DMF, dimethyl fumarate] | – | inhibitory effect |
